The source of these data is ChEMBL document CHEMBL4699583 (J Med Chem, 2020).

Structures are written as SMILES. Where only a bound is given, the exact number is not on record here.

The target of data set [1] is DNA topoisomerase 2-alpha (Homo sapiens, UniProt P11388). The data set can be described thus: Inhibition of recombinant human topoisomerase 2alpha using supercoiled pBR322 DNA as substrate incubated for 60 mins by ethidium bromide dye based agarose gel electrophoresis method.
Data set [2] in a line: Kinetic solubility of compound in PBS at pH 7.4 incubated for 24 hrs under shaking condition by UPLC-MS analysis. It counts as physicochemical. Conditions: for Kinetic_solubility: buffer, pH 7.4, 24 h.
The nature of data set [3]: in vitro. Conditions: mouse, liver microsomes.

As usually defined, the half-life is the time needed for the level to fall by half in the phase considered. Low readings indicate rapid decline, high ones slow decline.

DNA topoisomerase 2-alpha, sequence (P11388 whole entry): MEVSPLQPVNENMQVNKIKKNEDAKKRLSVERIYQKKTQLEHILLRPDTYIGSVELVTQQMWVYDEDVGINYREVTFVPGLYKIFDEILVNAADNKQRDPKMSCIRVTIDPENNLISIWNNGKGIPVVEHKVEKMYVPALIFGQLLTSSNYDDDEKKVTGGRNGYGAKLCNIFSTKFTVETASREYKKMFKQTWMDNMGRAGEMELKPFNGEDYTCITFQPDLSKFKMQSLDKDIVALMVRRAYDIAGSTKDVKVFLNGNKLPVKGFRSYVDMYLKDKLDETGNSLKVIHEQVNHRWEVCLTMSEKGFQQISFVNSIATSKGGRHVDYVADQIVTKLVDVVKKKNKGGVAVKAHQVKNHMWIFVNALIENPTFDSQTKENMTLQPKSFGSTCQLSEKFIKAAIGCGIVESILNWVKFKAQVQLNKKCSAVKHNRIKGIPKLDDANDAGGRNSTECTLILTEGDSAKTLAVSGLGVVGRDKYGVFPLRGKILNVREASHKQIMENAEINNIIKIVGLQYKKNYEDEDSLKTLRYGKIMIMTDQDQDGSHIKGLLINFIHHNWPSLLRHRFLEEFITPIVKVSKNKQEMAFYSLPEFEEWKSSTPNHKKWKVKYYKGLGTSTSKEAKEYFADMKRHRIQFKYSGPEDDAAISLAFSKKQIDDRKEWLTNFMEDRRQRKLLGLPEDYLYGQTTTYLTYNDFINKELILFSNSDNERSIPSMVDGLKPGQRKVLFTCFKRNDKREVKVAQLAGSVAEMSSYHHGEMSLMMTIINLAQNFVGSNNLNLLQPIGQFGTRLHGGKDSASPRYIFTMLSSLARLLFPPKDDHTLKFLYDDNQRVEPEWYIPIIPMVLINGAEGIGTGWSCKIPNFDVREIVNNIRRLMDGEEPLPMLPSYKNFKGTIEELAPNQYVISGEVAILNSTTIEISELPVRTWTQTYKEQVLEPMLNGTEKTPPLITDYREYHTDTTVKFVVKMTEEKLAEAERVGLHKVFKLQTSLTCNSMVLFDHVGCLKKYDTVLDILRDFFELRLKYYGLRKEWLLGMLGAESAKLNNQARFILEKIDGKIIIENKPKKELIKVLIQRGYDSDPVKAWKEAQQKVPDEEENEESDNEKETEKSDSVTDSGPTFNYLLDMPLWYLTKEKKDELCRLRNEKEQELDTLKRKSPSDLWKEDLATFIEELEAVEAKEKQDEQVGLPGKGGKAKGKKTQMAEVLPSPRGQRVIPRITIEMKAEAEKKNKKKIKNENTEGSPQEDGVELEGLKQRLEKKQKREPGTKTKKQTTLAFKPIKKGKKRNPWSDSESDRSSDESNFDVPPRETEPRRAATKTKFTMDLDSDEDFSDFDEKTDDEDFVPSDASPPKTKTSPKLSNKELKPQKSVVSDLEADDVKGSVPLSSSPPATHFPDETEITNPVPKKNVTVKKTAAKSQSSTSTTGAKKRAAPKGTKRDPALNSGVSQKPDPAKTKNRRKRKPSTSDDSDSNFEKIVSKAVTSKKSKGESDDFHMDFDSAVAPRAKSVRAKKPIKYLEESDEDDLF

Consider `COc1ccc(Nc2nc(-c3ccncc3)nc3c2CC(N)CC3)cc1` (centres undefined), for which, in data set [1], the IC50 result is on record as “Not Active”.

Take `NC1CCc2nc(-c3ccncc3)nc(Nc3ccccc3F)c2C1` (centres undefined): in data set [1], the IC50 result was “Not Active”.

As to `NC1CCc2nc(-c3ccccn3)nc(Nc3cccc(F)c3)c2C1` (centres undefined), in data set [1], the IC50 result is “Not Active”.

Turning to `Fc1cccc(Nc2nc(-c3ccncc3)nc3c2CCCC3)c1`, the IC50 entry in data set [1] is “Not Active”.

`CN(C)c1cccc(Nc2nc(-c3ccncc3)nc3c2CC(N)CC3)c1` (centres undefined): in data set [1], the IC50 result is reported as “Not Active”.

`NC1CCc2nc(-c3cccnc3)nc(Nc3cccc(F)c3)c2C1` (centres undefined): the solubility kinetic at 24 h in data set [2] (PBS, pH 7.4, read-out: Kinetic_solubility) was over 250 µM. This compound gave a half-life at 1 h, 4.6 µM in data set [3] of over 1 h.

As to `COc1cccc(Nc2nc(-c3ccncc3)nc3c2CC(N)CC3)c1` (centres undefined), the Kinetic_solubility in data set [2] is over 250 µM. The compound further had a half-life at 1 h, 4.6 µM in data set [3] of over 1 h.

In data set [2], `NC1CCc2nc(-c3ccncc3)nc(Nc3cccc(F)c3)c2C1` (racemic) displayed a Kinetic_solubility of 126 µM.

For the compound `NC1CCc2nc(-c3ccncc3)nc(Nc3ccccc3)c2C1` (centres undefined), in data set [1], the IC50 entry is listed as “Not Active”.

As for `CN(c1cccc(F)c1)c1nc(-c2ccncc2)nc2c1CC(N)CC2` (centres undefined), the IC50 entry in data set [1] is given as “Not Active”.

In the case of `NC1CCc2nc(-c3ccncc3)nc(Nc3ccc(F)cc3)c2C1` (centres undefined), in data set [2], the Kinetic_solubility was over 250 µM. The compound also yielded a half-life at 1 h, 4.6 µM in data set [3] of over 1 h.
